This is an account of results in a melting point compilation (Tetko et al.; mined from patent text by program, amines drawn as free bases though some values may be those of a salt).

As usually defined, the melting point is the temperature of the solid-liquid transition. In the case of `COc1cc(F)c(C(O)CNCc2csc(NC(C)=O)n2)cc1OC` (centres undefined), the melting point lay in the range of 173 to 175 °C.

Compound `CC(C)CCCC(=O)OC1c2ccccc2C(=O)N1c1ccc2ccc(Cl)nc2n1` (centres undefined) showed a melting point of 132 °C. The figure for `OCc1cc2c3ccccc3ncn2n1` is 132 to 133 °C.

As to `Nc1nc(N)c(-c2cc(Cl)cc(Cl)c2Cl)c(C(F)(F)F)n1`, the melting point lay within 226 to 227 °C. For `OC(CCCN1CCN(c2ncc(F)cn2)CC1)c1ccc(F)c2ccccc12` (centres undefined) the value was 129 to 131 °C. For `COCC(Oc1ccc(-n2c(C)nc3cc(C(F)(F)F)ccc32)cc1)C(=O)O` (centres undefined) the value was 111 to 112 °C; for `CC(=O)NNc1ccnc2c(NC(=O)c3c(Cl)cccc3Cl)ccc(Cl)c12`, 158 to 161 °C.

`CCOCc1nc2c(N)nc3cc(-c4cccnc4)ccc3c2n1CCCCS(N)(=O)=O` had a melting point of 250 to 252 °C. For `CCOC(=O)C=C(c1ccccc1)c1cc([N+](=O)[O-])ccc1NS(=O)(=O)c1ccc(OC)cc1` the value was 126 to 129 °C; for `CC(C)(C)Nc1cc(Cl)nc(NC(C)(C)C)n1`, 128 to 130 °C. For `CC(=O)OCc1[nH]c2c(c1C)C(=O)C(N1CC1)=C(C)C2=O` the value was 210 to 212 °C; for `CCCCCCc1ccnc(-c2ccc(C(N)=O)cc2)n1`, 232 to 233 °C; for `O=C1NCCc2ccc(OCCCCN3CCN(c4cccc(Cl)c4Cl)CC3)cc2N1`, 185 to 186 °C. `CN(C)CCOc1ccc(Cl)c(C(=O)NCC23CC4CC(CC(C4)C2)C3)c1` registered a melting point of 144 to 147 °C. For `COc1ccc(-c2cc3ncnc(Nc4ccc5[nH]ccc5c4)c3s2)cn1` the value was 243 to 249 °C; for `COc1ccc(C(Cc2ccc(OCCc3nc(-c4ccccc4)oc3C)cc2)C(=O)O)cc1` (centres undefined), 115 to 117 °C; for `CC(C)c1ccc2nc3c(C(=O)O)cccn3c(=O)c2c1`, 206 to 210 °C. As to `Cc1cc(O)n2ncc([N+](=O)[O-])c2n1`, the melting point was determined as 290 °C. For `NNC(=O)Cc1cccc(Cl)n1` the value was 220 to 225 °C.

The compound `CCOC(=O)C(=C1CCCN1C)c1ccc(F)cc1` had a melting point of 80 °C.

For the compound `CCN1C(=O)C(C)(C)C(=O)N(C)c2cc(CN(CCN3C(=O)CCc4ccccc43)Cc3cccnc3C)ccc21`, the melting point lay within 130 to 131 °C. For `COc1cc(C)cc(OC)c1N(CC1CCCCC1)C(=O)CNC(=O)c1cc2ccccc2n1CCC(=O)O` the value was 110 °C; for `CC(c1ccc(-c2ccccc2)c(F)c1)c1csc(N)n1` (centres undefined), 167 to 168 °C. For `Cn1ncnc1COc1nn2c(-c3cc(CF)on3)nnc2c2ccccc12` the value was 250 to 252 °C. The figure for `CN(C(=O)OCc1ccccc1)c1ccc([N+](=O)[O-])cc1O` is 192 °C; for `COC(=O)c1cn(C)c2cc(OC)c(C(F)(F)F)cc12` it is 166 to 170 °C; for `CCCCCCCCCCCCCCCCCCNC(=O)c1ccccc1I` it is 94 to 96 °C. In turn, `CC1(c2ccccc2)C(=O)Nc2ccc(Cl)cc21` (centres undefined) gave a melting point of 180 to 181 °C.

The compound `CSc1ccccc1CNC(=O)[C@@H]1CCCN(c2cccc3c2C(=O)N(Cc2ccncc2)C3=O)C1` showed a melting point of 216 to 217 °C. The figure for `Cc1ccc(/C=C/C(=O)O)n1Cc1ccc(Cl)cc1Cl` is 181 to 182 °C; for `CCCc1nc2c(N)nc3ccccc3c2n1CCC(=O)N1CCOCC1` it is 172 to 173 °C; for `CC1Cc2ccc(Cl)cc2C(c2ccc([N+](=O)[O-])cc2)=NN1C(N)=O` (centres undefined) it is 223 to 234 °C. The figure for `O=C(NCCN1CCCC1)c1ccc(-c2ccc3nnn(Cc4ccc5ncccc5c4)c3n2)cc1F` is 183 to 186 °C.

The compound `BrCc1ccc2nc(-c3cccs3)ccc2c1` came in with a melting point of 95 °C. For `Cc1c(C(F)(C(F)(F)F)C(F)(F)F)c(-c2ccc(S(N)(=O)=O)cc2)c2n1CCC2` the value was 200 °C; for `Cc1ccc([N+](=O)[O-])cc1COCC(F)(F)C(F)(F)F`, 53.5 to 54.5 °C.

Regarding `O=C(NCC/C=C/CCCNC(=O)c1ccc(OC(F)F)cc1)c1ccc(OC(F)F)cc1`, the melting point lay within 122 to 123 °C. The figure for `COc1ccc(N2C(=O)C(=CN(C)C)c3ccccc32)cc1F` is 113 to 114 °C; for `C=C(C)c1cn(-c2c(Cl)cc(C(F)(F)F)cc2Cl)nc1C#N` it is 63 to 64 °C.

`O=C(c1ccccc1)c1c(Cl)cc(CBr)cc1Cl` showed a melting point of 111 to 113 °C.

For the compound `CCOC(=O)[C@H](Cc1cc(O)c(O)cc1I)NC=O`, the melting point lay in the range of 131 to 132 °C.

On to `CS(=O)(=O)c1ccc(Cl)cc1C1NC(=O)NC1=O` (centres undefined), for which the melting point lay in the range of 238 to 240 °C. With `O=C(O)c1cc(F)c(F)c(I)c1F`, the melting point fell in the range of 122 to 124 °C. For `Nc1cccc(-c2cccc(-c3nc(-c4ccc(C(F)(F)F)cc4)cc(C(F)(F)F)n3)c2)c1` the value was 156 °C; for `C=CCOc1cc(C(O)CS(C)(=O)=O)cc(OCC=C)c1NC(C)=O` (centres undefined), 162 °C.

As to `CN1CCC(C#N)(c2ccc(Cl)cc2F)CC1`, the melting point was in the range of 85 to 87 °C. For `CCCCOCCOc1ccc(-c2ccc(N3CCCCCC3)c(C=CC(=O)O)c2)cc1` the value was 135 to 138 °C. For `CC(C)c1c(C=CC(=O)CC(O)CC(=O)O)c(-c2ccccc2)c2c3ccccc3ccn12` (centres undefined) the value was 95 to 100 °C; for `Cc1ccc(S(=O)(=O)OC[C@H]2COc3ccc(Cl)cc3O2)cc1`, 90 to 91 °C. The figure for `Cc1cnc(N)cc1C(c1cc(F)ccc1F)S(=O)(=O)c1ccc(Cl)cc1` (centres undefined) is 188 to 189 °C; for `CC1Cc2cc3c(cc2C(c2ccccc2)N1)OCO3` (centres undefined) it is 89 to 91 °C. With `O=c1c2c(Cl)cc(Cl)cc2n(Cc2ccccc2)c(=O)n1Cc1cccc(Cl)c1`, the melting point lay in the range of 123 to 129 °C.

In turn, `CC(C)(C)OC(=O)CCNC1(c2ccccc2Cl)C(=O)Nc2ccc(Cl)cc21` (centres undefined) showed a melting point of 188 °C. `Cc1oc(-c2cc3ccccc3s2)nc1COc1ccc(CCCn2ccnc2)cc1` registered a melting point of 142 to 143 °C. For `COc1ccc(S(=O)(=O)NC=NCCSCc2csc(NC=NN)n2)cc1`, the melting point was in the range of 68 to 76 °C. The figure for `O=C(NNC1=NS(=O)(=O)c2ccccc21)c1ccncc1` is 288 to 289 °C. The figure for `CCOC(=O)COc1ccc(S(=O)(=O)c2ccc(C)nc2Nc2c(C)cc(C)cc2C)cc1` is 116 to 118 °C; for `CC1CCN(C)c2nc(O)ccc21` (centres undefined) it is 134 to 135 °C; for `O=C(/C=C/C=C(c1ccc(Cl)cc1)c1ccc(Cl)cc1)NCCCCc1cccnc1` it is 146 to 147 °C. For `CCOC(=O)C1=C(C)Nc2n[nH]cc2C1c1cccc2nonc12` (centres undefined) the value was 228 °C. In turn, `COC(=O)CCN(CC(=O)O)CC(=O)O` had a melting point of 141 °C.

For `O=C(O)[C@H](CO)NC(=O)[C@@H]1CS[C@H](c2ccccc2O)N1C(=O)CCS`, the melting point lay in the range of 140 to 145 °C.

Compound `O=C(c1ccc(I)cc1)N1CCCCC1` came in with a melting point of 126 to 127 °C. For `COC(=O)c1cc(COc2nn(-c3ccccc3)cc2C=O)ccc1OCc1nc(-c2ccco2)oc1C` the value was 173 to 174 °C. For `CN(Cc1ccc(NC(=O)C2=Cc3cc(-c4ccc(-n5ccnc5)cc4)ccc3OCC2)cc1)C1CCOCC1` the value was 194 to 195 °C; for `Cc1cc(OCC(=O)NCc2ccccc2)ccc1N1CC(=O)NS1(=O)=O`, 70 to 90 °C. In the case of `Cc1c(CN(C)CCc2ccc(NS(C)(=O)=O)cc2)oc2ccc(NS(C)(=O)=O)cc12`, the melting point was in the range of 142 to 144 °C. The compound `Cc1oc(-c2ccco2)nc1COc1ccc(COc2ncccc2CC(=O)O)cc1` gave a melting point of 151 to 152 °C. For `Nc1ccccc1C(=O)NCCCn1cncn1`, the melting point lay in the range of 96 to 98 °C. For `CCOC(=O)CN(C)c1ccc(N=C=S)cc1` the value was 90 to 91 °C. For `CCSC1=NCC(O)CN1` (centres undefined) the value was 106 to 108 °C. In turn, `O=C(Nc1ccccc1F)c1ccccc1CN1C(=O)C2(COc3cc4c(cc32)CCO4)c2ccccc21` (centres undefined) had a melting point of 195 to 197 °C. The compound `CCCCc1nc2cccc(C(=O)OC)c2n1Cc1ccc(-c2ccccc2-c2n[nH]c(=O)o2)cc1` displayed a melting point of 204 to 205 °C. For `c1cc2c(Nc3ccc4[nH]ncc4c3)ncnc2cn1` the value was 258 °C; for `CCN(CCc1c[nH]c2ccccc12)C(=O)CCCC(=O)OC`, 73 to 75 °C; for `CC(C)(C)c1ccc(C(=O)Nc2cn3cc(-c4ccccc4)ccc3n2)cc1`, 252 to 253 °C. The figure for `COc1cc2ncnc(Nc3ccc(OCc4ccccn4)c(C)c3)c2cc1O` is 234 to 235 °C; for `O=C(N1CCOCC1)C12CC(CN1)C2` it is 97.5 to 98 °C; for `CC(C)(C)C(=O)OCc1nc2cc3c(cc2c(=O)[nH]1)C(=O)CC3` it is 185 to 190 °C. The figure for `CCN(CC)C(=O)Oc1cc(-c2ccncc2)nc2ccccc12` is 76 °C; for `Oc1ccc2cc(-c3csc(-c4ccccc4)n3)ccc2c1` it is 194 to 197 °C; for `CC(CN(C(C)C)C(C)C)N1C(=O)/C(=N/NC(N)=O)c2ccccc21` (centres undefined) it is 195 to 197 °C. Take `CN(C)S(=O)(=O)c1ccc(Br)cc1OC(F)(F)F`: the melting point was 55 to 58 °C. For `O=C(CCCl)NC12CCCC(C1)C1CCC2C1` (centres undefined) the value was 192 to 195 °C; for `COc1cc2c(cc1OC)C(C=Cc1ccc([N+](=O)[O-])cc1)=NN(C(C)=O)C(C)C2` (centres undefined), 182 to 184 °C; for `O=C(O)c1ccccc1C(=O)Nc1cccc(-c2ccnc3c(C(=O)c4cccs4)cnn23)c1`, 215 to 216 °C. For `C[C@](Cc1c[nH]c2ccccc12)(NC(=O)O)C(=O)NCCC1CCCCC1` the value was 79 to 81 °C; for `CNC(=S)C1(c2cccc(C)n2)CCCCS1` (centres undefined), 139 °C. For `CCCc1nc2c(N)nc3cccnc3c2n1CCCCN(OC)C(C)=O` the value was 155 to 156 °C.
